Molecular target: rat MCH-1 (Rattus norvegicus, UniProt P97639)
Assay: Radioligand binding assay at cloned rat MCH1 receptor ([3H] Compound A)
Parameters: host or cells: Peak rapid 293 (Peakr293) cells, transient calcium phosphate transfection, membranes
Conditions: cloned rat MCH1 receptor; 0.08 nM [3H] Compound A; Peakr293 cell membranes; read-out: Ki (nM) rMCH1

Chain of rat MCH-1 (P97639 whole entry): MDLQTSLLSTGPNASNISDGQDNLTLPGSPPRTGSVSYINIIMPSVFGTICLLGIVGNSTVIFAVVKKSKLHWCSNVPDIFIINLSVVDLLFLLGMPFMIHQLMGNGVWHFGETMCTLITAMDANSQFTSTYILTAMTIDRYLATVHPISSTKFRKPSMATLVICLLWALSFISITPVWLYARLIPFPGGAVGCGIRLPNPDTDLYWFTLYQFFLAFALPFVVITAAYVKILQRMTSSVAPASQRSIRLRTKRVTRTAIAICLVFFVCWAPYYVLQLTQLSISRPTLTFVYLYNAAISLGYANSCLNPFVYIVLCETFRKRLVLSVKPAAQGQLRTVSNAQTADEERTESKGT

Row | Ki [nM] | Structure (SMILES)
1 | 105 | CCC(=O)Nc1cccc(C2CCN(CCCC(=O)c3ccc(OC)cc3)CC2)c1 [Example 531]
2 | 8.7 | CCC(=O)Nc1cccc(C2CCN(CCCC(=O)c3ccc(Cl)cc3)CC2)c1 [Example 532]
3 | 10.6 | CCC(=O)Nc1cccc(C2CCN(CCCC(=O)c3ccc(Br)cc3)CC2)c1 [Example 533]
4 | 155 | CCC(=O)Nc1cccc(C2CCN(CCCC(=O)c3ccc(C(C)(C)C)cc3)CC2)c1 [Example 534]
5 | 28.1 | CCC(=O)Nc1cccc(C2CCN(CCCC(=O)c3ccc(F)cc3)CC2)c1 [Example 535]
6 | 150 | CCC(=O)Nc1cccc(C2CCN(CCCC(=O)c3ccc(Oc4ccccc4)cc3)CC2)c1 [Example 536]
7 | 67.7 | CC(C)c1ccc(C(=O)CCCN2CCC(c3cccc(NC(=O)C4CC4)c3)CC2)cc1 [Example 537]
8 | 36.3 | COc1ccc(C(=O)CCCN2CCC(c3cccc(NC(=O)C4CC4)c3)CC2)cc1 [Example 538]
9 | 268 | O=C(CCCN1CCC(c2cccc(NC(=O)C3CC3)c2)CC1)c1ccc(Oc2ccccc2)cc1 [Example 539]
10 | 172 | CCC(=O)Nc1cccc(C2CCN(CCCC(=O)c3ccc(C(C)C)cc3)CC2)c1 [Example 540]
11 | 319 | CC(C)(C)c1ccc(C(=O)CCCN2CCC(c3cccc(NC(=O)C4CC4)c3)CC2)cc1 [Example 541]
12 | 31.3 | CCC(=O)Nc1cccc(C2CCN(CCCC(=O)c3ccc(C)cc3)CC2)c1 [Example 542]
13 | 27.6 | CCC(=O)Nc1cccc(C2CCN(CCCC(=O)c3ccc(C)c(C)c3)CC2)c1 [Example 543]
14 | 16.2 | O=C(CCCN1CCC(c2cccc(NC(=O)C3CC3)c2)CC1)c1ccc(Br)cc1 [Example 544]
15 | 52 | CCC(=O)Nc1cccc(C2CCN(CCCCC(=O)c3ccc(F)cc3)CC2)c1 [Example 545]
16 | 87.9 | Cc1ccc(C(=O)CCCN2CCC(c3cccc(NC(=O)C4CC4)c3)CC2)cc1C [Example 546]
17 | 75.5 | Cc1ccc(C(=O)CCCN2CCC(c3cccc(NC(=O)C4CC4)c3)CC2)cc1 [Example 547]
18 | 126 | O=C(CCCN1CCC(c2cccc(NC(=O)C3CC3)c2)CC1)c1ccc(F)cc1 [Example 548]
19 | 39.7 | O=C(CCCCN1CCC(c2cccc(NC(=O)C3CC3)c2)CC1)c1cccc(F)c1 [Example 549]
20 | 60.9 | CCC(=O)Nc1cccc(C2CCN(CCCCC(=O)c3ccc(C(F)(F)F)cc3)CC2)c1 [Example 550]
21 | 21.6 | O=C(CCCCN1CCC(c2cccc(NC(=O)C3CC3)c2)CC1)c1ccc(F)cc1 [Example 551]
22 | 24.7 | CCC(=O)Nc1cccc(C2CCN(CCCCC(=O)c3cccc([N+](=O)[O-])c3)CC2)c1 [Example 552]

Row | Ki [nM] | Structure (SMILES)
23 | 27.5 | O=C(CCCCN1CCC(c2cccc(NC(=O)C3CC3)c2)CC1)c1cccc([N+](=O)[O-])c1 [Example 553]
24 | 70.9 | CCC(=O)Nc1cccc(C2CCN(CCCCC(=O)c3ccccc3F)CC2)c1 [Example 554]
25 | 50.3 | CCC(=O)Nc1cccc(C2CCN(CCCCC(=O)c3cccc(F)c3)CC2)c1 [Example 555]
26 | 35.6 | CCC(=O)Nc1cccc(C2CCN(CCCCC(=O)c3ccc([N+](=O)[O-])cc3)CC2)c1 [Example 556]
27 | 25.6 | O=C(CCCCN1CCC(c2cccc(NC(=O)C3CC3)c2)CC1)c1ccc([N+](=O)[O-])cc1 [Example 557]
28 | 20.2 | O=C(CCCCN1CCC(c2cccc(NC(=O)C3CC3)c2)CC1)c1ccc(Cl)cc1 [Example 558]
29 | 62.3 | CCC(=O)Nc1cccc(C2CCN(CCCCC(=O)c3ccccc3C(F)(F)F)CC2)c1 [Example 559]
30 | 55.7 | O=C(CCCCN1CCC(c2cccc(NC(=O)C3CC3)c2)CC1)c1ccccc1C(F)(F)F [Example 560]
31 | 92.9 | CCC(=O)Nc1cccc(C2CCN(CCCCC(=O)c3ccc(Cl)cc3)CC2)c1 [Example 561]
32 | 48.1 | CCC(=O)Nc1cccc(C2CCN(CCCCC(=O)c3cccc(Cl)c3)CC2)c1 [Example 562]
33 | 50.2 | O=C(CCCCN1CCC(c2cccc(NC(=O)C3CC3)c2)CC1)c1ccccc1F [Example 563]
34 | 28.9 | O=C(CCCCN1CCC(c2cccc(NC(=O)C3CC3)c2)CC1)c1cccc(Cl)c1 [Example 564]
35 | 49.2 | O=C(CCCCN1CCC(c2cccc(NC(=O)C3CC3)c2)CC1)c1ccc(C(F)(F)F)cc1 [Example 565]
36 | 77.8 | CCC(=O)Nc1cccc(C2CCN(CCCCC(=O)c3ccccc3Cl)CC2)c1 [Example 566]
37 | 92.2 | O=C(CCCCN1CCC(c2cccc(NC(=O)C3CC3)c2)CC1)c1ccccc1Cl [Example 567]
38 | 68.8 | O=C(CCCCN1CCC(c2cccc(NC(=O)C3CC3)c2)CC1)c1cccc(C(F)(F)F)c1 [Example 568]
39 | 549 | Cc1ccc(C(=O)CCCN2CCC(c3cccc(N(C)C(=O)C(C)C)c3)CC2)cc1C [Example 569]
40 | 136 | CC(C)C(=O)Nc1cccc(C2CCN(C(C)CCC(=O)c3ccccc3)CC2)c1 (stereo not drawn) [Example 570]
41 | 88.3 | CCC(=O)Nc1cccc(C2CCN(CCCCC(=O)c3cccc(C(F)(F)F)c3)CC2)c1 [Example 571]
42 | 181 | CC(C)C(=O)Nc1cccc(C2CCN(CCCCC(=O)N3C(=O)OC[C@H]3c3ccc(F)c(F)c3)CC2)c1 [Example 572]
43 | 114 | CC(C)C(=O)Nc1cccc(C2CCN(CCCNC(=O)N3C(=O)OC[C@H]3c3ccc(F)c(F)c3)CC2)c1 [Example 573]

The remaining lines, values behind:

Row | Structure (SMILES) | Ki [nM]
44 | COC(=O)c1ccc2c(CN3CCC(c4cccc(NC(=O)C(C)C)c4)CC3)c[nH]c2c1 [Example 498, METHYL 3-({4-[3-(ISOBUTYRYLAMINO)PHENYL]-1-PIPERIDINYL}METHYL)-1H-INDOLE-6-CARBOXYLATE] | 52.2
45 | CC(C)C(=O)Nc1cccc(C2CCN(Cc3c[nH]c4cc(C(F)(F)F)ccc34)CC2)c1 [Example 499] | 11.9
46 | CC(C)C(=O)Nc1cccc(C2CCN(Cc3cn(-c4cccnc4)c4ccccc34)CC2)c1 [Example 500] | 29.4
47 | CC(C)C(=O)Nc1cccc(C2CCN(Cc3cn(-c4ccccn4)c4ccccc34)CC2)c1 [Example 501] | 22.1
48 | CC(C)C(=O)Nc1cccc(C2CCN(Cc3cn(-c4ccccc4)c4cc(F)ccc34)CC2)c1 [Example 502] | 4.6
49 | CC(C)C(=O)Nc1cccc(C2CCN(Cc3cn(-c4ccccc4)c4cc(Cl)ccc34)CC2)c1 [Example 503] | 6
50 | CC(C)C(=O)Nc1cccc(C2CCN(Cc3cn(-c4ccccc4)c4cc(OCc5ccccc5)ccc34)CC2)c1 [Example 504] | 22.5
51 | Cc1ccc2c(CN3CCC(c4cccc(NC(=O)C(C)C)c4)CC3)cn(-c3ccccc3)c2c1 [Example 505] | 6.5
52 | COC(=O)c1ccc2c(CN3CCC(c4cccc(NC(=O)C(C)C)c4)CC3)cn(-c3ccccc3)c2c1 [Example 506, METHYL 3-({4-[3-(ISOBUTYRYLAMINO)PHENYL]-1-PIPERIDINYL}METHYL)-1-PHENYL-1H-INDOLE-6-CARBOXYLATE] | 2.5
53 | CC(C)C(=O)Nc1cccc(C2CCN(Cc3c[nH]c4cc([N+](=O)[O-])ccc34)CC2)c1 [Example 507] | 57.9
54 | CC(C)C(=O)Nc1cccc(C2CCN(Cc3cn(-c4ccccc4)c4cc(C(F)(F)F)ccc34)CC2)c1 [Example 508] | 8.5
55 | Cc1cccc2c(CN3CCC(c4cccc(NC(=O)C(C)C)c4)CC3)cn(-c3ccccc3)c12 [Example 509] | 24.3
56 | COc1cccc2c(CN3CCC(c4cccc(NC(=O)C(C)C)c4)CC3)c[nH]c12 [Example 510] | 305
57 | COc1cccc2c(CN3CCC(c4cccc(NC(=O)C(C)C)c4)CC3)cn(-c3ccccc3)c12 [Example 511] | 6
58 | CC(C)C(=O)Nc1cccc(C2CCN(Cc3cn(-c4ccccc4)c4c(Cl)cccc34)CC2)c1 [Example 512] | 42.7
59 | CC(C)C(=O)Nc1cccc(C2CCN(Cc3c[nH]c4c([N+](=O)[O-])cccc34)CC2)c1 [Example 513] | 179

Row | Structure (SMILES) | Ki [nM]
60 | O=C(Nc1cccc(C2CCN(Cc3c[nH]c4c([N+](=O)[O-])cccc34)CC2)c1)C1CC1 [Example 514] | 151
61 | CCC(=O)Nc1cccc(C2CCN(Cc3c[nH]c4c([N+](=O)[O-])cccc34)CC2)c1 [Example 515] | 296
62 | CC(C)C(=O)Nc1cccc(C2CCN(Cc3c[nH]c4c(-c5ccccc5F)cccc34)CC2)c1 [Example 516] | 90.9
63 | CC(C)C(=O)Nc1cccc(C2CCN(Cc3c[nH]c4c(-c5ccc6ccccc6c5)cccc34)CC2)c1 [Example 517] | 287
64 | CCc1ccc(-c2cccc3c(CN4CCC(c5cccc(NC(=O)C(C)C)c5)CC4)c[nH]c23)cc1 [Example 518] | 226
65 | Cc1ccccc1-c1ccc2c(CN3CCC(c4cccc(NC(=O)C(C)C)c4)CC3)c[nH]c2c1 [Example 519] | 80.9
66 | CC(C)C(=O)Nc1cccc(C2CCN(Cc3c[nH]c4c(-c5cccc(Cl)c5)cccc34)CC2)c1 [Example 520] | 135
67 | CC(C)C(=O)Nc1cccc(C2CCN(Cc3c[nH]c4c(-c5cccc([N+](=O)[O-])c5)cccc34)CC2)c1 [Example 521] | 27
68 | CC(=O)c1ccc(-c2cccc3c(CN4CCC(c5cccc(NC(=O)C(C)C)c5)CC4)c[nH]c23)cc1 [Example 522] | 247
69 | CCc1ccc(-c2ccc3c(CN4CCC(c5cccc(NC(=O)C(C)C)c5)CC4)c[nH]c3c2)cc1 [Example 523] | 54.8
70 | Cc1ccccc1-c1cccc2c(CN3CCC(c4cccc(NC(=O)C(C)C)c4)CC3)c[nH]c12 [Example 524] | 199
71 | CC(C)C(=O)Nc1cccc(C2CCN(Cc3c[nH]c4cc(-c5ccccc5F)ccc34)CC2)c1 [Example 525] | 91.4
72 | CC(C)C(=O)Nc1cccc(C2CCN(Cc3c[nH]c4ccc(Br)cc34)CC2)c1 [Example 526] | 411
73 | Cc1ccc(Oc2ccc3[nH]cc(CN4CCC(c5cccc(NC(=O)C(C)C)c5)CC4)c3c2)cc1 [Example 527] | 226
74 | CC(C)C(=O)Nc1cccc(C2CCN(CCCCCCC(=O)c3ccccc3)CC2)c1 [Example 528] | 115
75 | CC(C)C(=O)Nc1cccc(C2CCN(CCCCCC(=O)c3ccccc3)CC2)c1 [Example 529] | 42.4
